From the NIST ThermoML archive (doi:10.1021/je400655j)
± gives the expanded uncertainty stated by the source.

Assay: wn = mass fraction of the nth substance listed
Settings: 101 kPa, Liquid; for mass density: Vibrating tube method; for viscosity: Concentric cylinders viscometry

CC(CC(C)(C)C)CP(=O)([O-])CC(C)CC(C)(C)C.CCCCCCCCCCCCCC[P+](CCCCCC)(CCCCCC)CCCCCC + O
mass density (293 K, w2 = 0.05): 899.1 ± 4.1 kg/m3
mass density (293 K, w2 = 0.1): 907.3 ± 3.9 kg/m3
viscosity (298 K, w2 = 0.05): 281 ± 19 mPa·s
viscosity (298 K, w2 = 0.1): 174 ± 12 mPa·s
mass density (298 K, w2 = 0.05): 895.8 ± 4.1 kg/m3
mass density (298 K, w2 = 0.1): 903.9 ± 3.9 kg/m3
viscosity (303 K, w2 = 0.05): 203 ± 14 mPa·s
viscosity (303 K, w2 = 0.1): 137 ± 9 mPa·s
mass density (303 K, w2 = 0.05): 892.6 ± 4.1 kg/m3
mass density (303 K, w2 = 0.1): 900.7 ± 3.9 kg/m3
viscosity (308 K, w2 = 0.05): 150 ± 10 mPa·s
viscosity (308 K, w2 = 0.1): 103 ± 7 mPa·s
mass density (308 K, w2 = 0.05): 889.3 ± 4.1 kg/m3
mass density (308 K, w2 = 0.1): 897.4 ± 3.9 kg/m3
viscosity (313 K, w2 = 0.05): 114 ± 8 mPa·s
viscosity (313 K, w2 = 0.1): 78 ± 5 mPa·s
mass density (313 K, w2 = 0.05): 886.1 ± 4 kg/m3
mass density (313 K, w2 = 0.1): 894.1 ± 3.8 kg/m3
viscosity (318 K, w2 = 0.05): 87 ± 6 mPa·s
viscosity (318 K, w2 = 0.1): 59 ± 4 mPa·s
mass density (318 K, w2 = 0.05): 882.9 ± 4 kg/m3
mass density (318 K, w2 = 0.1): 890.7 ± 3.8 kg/m3
viscosity (323 K, w2 = 0.05): 68 ± 4 mPa·s
viscosity (323 K, w2 = 0.1): 47 ± 3 mPa·s
mass density (323 K, w2 = 0.05): 879.7 ± 4 kg/m3
mass density (323 K, w2 = 0.1): 887.4 ± 3.8 kg/m3
viscosity (328 K, w2 = 0.05): 54 ± 4 mPa·s
viscosity (328 K, w2 = 0.1): 37 ± 2 mPa·s
mass density (328 K, w2 = 0.05): 876.5 ± 3.9 kg/m3
mass density (328 K, w2 = 0.1): 884 ± 3.8 kg/m3
viscosity (333 K, w2 = 0.05): 44 ± 3 mPa·s
viscosity (333 K, w2 = 0.1): 31 ± 2 mPa·s
viscosity (338 K, w2 = 0.05): 36 ± 2 mPa·s
viscosity (338 K, w2 = 0.1): 25 ± 2 mPa·s
viscosity (343 K, w2 = 0.05): 31 ± 2 mPa·s
viscosity (343 K, w2 = 0.1): 23 ± 2 mPa·s

CC(=O)[O-].CCCCn1cc[n+](C)c1 [1-butyl-3-methylimidazolium acetate] + CC(CC(C)(C)C)CP(=O)([O-])CC(C)CC(C)(C)C.CCCCCCCCCCCCCC[P+](CCCCCC)(CCCCCC)CCCCCC
mass density (293 K, w1 = 0.2): 908.8 ± 3.8 kg/m3
mass density (293 K, w1 = 0.5): 937.1 ± 3 kg/m3
viscosity (298 K, w1 = 0.2): 160 ± 11 mPa·s
viscosity (298 K, w1 = 0.5): 33 ± 2 mPa·s
mass density (298 K, w1 = 0.2): 905.6 ± 3.8 kg/m3
mass density (298 K, w1 = 0.5): 933.6 ± 3 kg/m3
viscosity (303 K, w1 = 0.2): 123 ± 8 mPa·s
viscosity (303 K, w1 = 0.5): 27 ± 2 mPa·s
mass density (303 K, w1 = 0.2): 902.4 ± 3.7 kg/m3
mass density (303 K, w1 = 0.5): 930.1 ± 3 kg/m3
viscosity (308 K, w1 = 0.2): 97 ± 6 mPa·s
viscosity (308 K, w1 = 0.5): 22 ± 2 mPa·s
mass density (308 K, w1 = 0.2): 899.3 ± 3.7 kg/m3
mass density (308 K, w1 = 0.5): 926.6 ± 2.9 kg/m3
viscosity (313 K, w1 = 0.2): 77 ± 5 mPa·s
viscosity (313 K, w1 = 0.5): 19 ± 1 mPa·s
mass density (313 K, w1 = 0.2): 896.1 ± 3.7 kg/m3
mass density (313 K, w1 = 0.5): 923.1 ± 2.9 kg/m3
viscosity (318 K, w1 = 0.2): 63 ± 4 mPa·s
viscosity (318 K, w1 = 0.5): 17 ± 1 mPa·s
mass density (318 K, w1 = 0.2): 893 ± 3.7 kg/m3
mass density (318 K, w1 = 0.5): 919.6 ± 2.9 kg/m3
viscosity (323 K, w1 = 0.2): 52 ± 3 mPa·s
viscosity (323 K, w1 = 0.5): 15 ± 1 mPa·s
mass density (323 K, w1 = 0.2): 889.9 ± 3.6 kg/m3
mass density (323 K, w1 = 0.5): 916.1 ± 2.9 kg/m3
viscosity (328 K, w1 = 0.2): 44 ± 3 mPa·s
viscosity (328 K, w1 = 0.5): 13 ± 1 mPa·s
mass density (328 K, w1 = 0.2): 886.7 ± 3.6 kg/m3
mass density (328 K, w1 = 0.5): 912.6 ± 2.9 kg/m3
viscosity (333 K, w1 = 0.2): 37 ± 2 mPa·s
viscosity (333 K, w1 = 0.5): 12 ± 1 mPa·s
mass density (333 K, w1 = 0.2): 883.5 ± 3.6 kg/m3
mass density (333 K, w1 = 0.5): 909.2 ± 2.8 kg/m3
viscosity (338 K, w1 = 0.2): 32 ± 2 mPa·s
viscosity (338 K, w1 = 0.5): 11 ± 1 mPa·s
mass density (338 K, w1 = 0.2): 880.3 ± 3.6 kg/m3
mass density (338 K, w1 = 0.5): 905.7 ± 2.8 kg/m3
viscosity (343 K, w1 = 0.2): 28 ± 2 mPa·s
viscosity (343 K, w1 = 0.5): 10 ± 1 mPa·s
mass density (343 K, w1 = 0.2): 877.1 ± 3.5 kg/m3
mass density (343 K, w1 = 0.5): 902.2 ± 2.8 kg/m3
